In ChEMBL document CHEMBL1158056, “Antidepressant principles of the roots of Polygala tenuifolia” (J Nat Prod, 2006) one finds IC50 data, which are given here for 2 molecules.

The structures appear in SMILES notation. pIC50: −log10 of the molar value.

This assay concerns the target Sodium-dependent noradrenaline transporter (Homo sapiens, UniProt P23975). In words: biochemical.

Sodium-dependent noradrenaline transporter, sequence (P23975 whole entry): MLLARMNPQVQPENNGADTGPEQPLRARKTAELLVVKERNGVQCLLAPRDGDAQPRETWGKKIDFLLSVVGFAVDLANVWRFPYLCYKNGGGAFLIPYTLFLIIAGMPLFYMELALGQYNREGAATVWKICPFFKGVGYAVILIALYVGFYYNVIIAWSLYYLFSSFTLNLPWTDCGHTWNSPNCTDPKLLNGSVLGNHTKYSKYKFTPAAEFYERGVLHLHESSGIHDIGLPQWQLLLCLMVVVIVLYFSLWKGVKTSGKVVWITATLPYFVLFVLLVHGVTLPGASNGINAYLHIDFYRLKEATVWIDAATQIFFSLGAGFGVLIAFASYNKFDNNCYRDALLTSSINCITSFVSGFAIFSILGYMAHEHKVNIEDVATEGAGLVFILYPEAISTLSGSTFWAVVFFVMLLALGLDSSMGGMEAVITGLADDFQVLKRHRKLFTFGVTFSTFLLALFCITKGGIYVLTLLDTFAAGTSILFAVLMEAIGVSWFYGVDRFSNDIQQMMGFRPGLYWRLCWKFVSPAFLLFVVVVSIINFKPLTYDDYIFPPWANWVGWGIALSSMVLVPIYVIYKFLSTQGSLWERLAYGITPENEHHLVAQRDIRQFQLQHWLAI
Description: Displacement of [125I]RTI-55 from human NET expressed in MDCK cell membrane

In general, pIC50 refers to the negative decadic logarithm of the IC50, by convention in mol/L. Read a high pIC50 as a small IC50. For the molecule `OC[C@@H]1OC[C@@H](O[C@@H]2O[C@@H](COCc3ccccc3)[C@@H](O)[C@@H](O)[C@@H]2O)[C@H](O)[C@H]1O` [POLYGALATENOSIDE A], the negative-log IC50 (pIC50) was 4.52. The result for `OC[C@@H]1OC[C@@H](O[C@@H]2O[C@@H](CO)[C@@H](O)[C@@H](OCc3ccccc3)[C@@H]2O)[C@H](O)[C@H]1O` [POLYGALATENOSIDE B] reads 5.22.
